Key:
[1] = Critical micelle concentration determined by micellar/surfactant based mechanism; assay type: functional
[2] = Inhibitory concentration required to inhibit aggregation of 50 uM beta-amyloid 1-40 peptide by 50% over 24 hr r incubation, 37 degree C; assay type: functional

SMILES | Critical micelle concentration [1] [µM] | IC50 [2] [µM]
CCN(CC)CCCOc1ccc(-c2oc3ccccc3c2C(=O)c2ccc(C)cc2)cc1 | 225 | 20
CCN(CC)CCCOc1ccc(-c2cc3ccccc3o2)cc1 | 220 | 78

From ChEMBL document CHEMBL1133794, “3-p-Toluoyl-2-[4'-(3-diethylaminopropoxy)-phenyl]-benzofuran and 2-[4'-(3-diethylaminopropoxy)-phenyl]-benzofuran do not act as surfactants or micelles when inhibiting the aggregation of beta-amyloid peptide” (Bioorg Med Chem Lett, 2001)
